The structures appear in SMILES notation. A value given as a limit tells only on which side of the number the result lay.

As a reminder, the EC50 is the concentration needed to bring the measured effect to its halfway point. Usually CC50 stands for the concentration at which the toxic effect on the cells reaches its halfway point. Broadly, the half-life is how long it takes for the measured level to halve. The microsomal CLint is the rate of metabolic loss divided by the concentration.

Tested on in the first data set: not listed separately
The data set is described as follows: Selectivity index, ratio of CC50 for cytotoxicity against human Huh-5-2 cells carrying HCV subgenomic replicon assessed as decrease in intracellular ATP level to EC50 for antiviral activity against HCV GT-1b Con1 in human Huh-5-2 cells carrying HCV subgenomic replicon assessed as reduction of viral replication. It is filed as toxicity, cell-based. The following applies: read-out: Ratio CC50/EC50.
Regarding `COC(=O)N[C@@H](C(=O)N1CCCC1C(=O)Nc1cccc(C#Cc2cccc(-c3cnc([C@@H]4CCCN4C(=O)[C@H](NC(=O)OC)c4ccccc4)[nH]3)c2)c1)c1ccccc1` (single isomer, unassigned), the selectivity ratio was over 11000.

Turning to `COC(=O)N[C@H](C(=O)N1CCC[C@H]1C(=O)Nc1ccc(C#Cc2ccc(NC(=O)[C@@H]3CCCN3C(=O)[C@@H](NC(=O)OC)C(C)C)cc2)cc1)C(C)C`, the selectivity ratio is over 7660.

On to `CCCCOC(=O)N[C@H](C(=O)N1CCC[C@H]1C(=O)Nc1cccc(C#Cc2cccc(NC(=O)[C@@H]3CCCN3C(=O)[C@@H](NC(=O)OCCCC)C(C)C)c2)c1)C(C)C`, for which the selectivity ratio was over 173.

Take `COC(=O)N[C@@H](CCSC)C(=O)N1CCC[C@H]1C(=O)Nc1cccc(C#Cc2cccc(NC(=O)[C@@H]3CCCN3C(=O)[C@H](CCSC)NC(=O)OC)c2)c1`: the selectivity ratio is over 7350.

A further data set relates to Hepatitis C virus. The data set is described as follows: Antiviral activity against HCV GT-1b Con1 in human Huh-5-2 cells carrying HCV subgenomic replicon assessed as reduction of viral replication measured after 72 hrs by Firefly luciferase reporter gene assay. It is filed as functional, organism-based, Hepacivirus hominis. The following applies: subtype 1b Con1, Huh-5-2, 72 h. On the technique in general: In antiviral work, replicon cells carry a viral genome segment that copies itself.
In the case of `COC(=O)N[C@@H](C(=O)N1CCC[C@H]1C(=O)Nc1cccc(C#Cc2ccc(-c3cnc([C@@H]4CCCN4C(=O)[C@H](NC(=O)OC)c4ccccc4)[nH]3)cc2)c1)c1ccccc1`, the EC50 was 0.00114 nM.

For `CCCCOC(=O)N[C@@H](CC(C)C)C(=O)N1CCC[C@H]1C(=O)Nc1cccc(C#Cc2cccc(NC(=O)[C@@H]3CCCN3C(=O)[C@H](CC(C)C)NC(=O)OCCCC)c2)c1`, the EC50 is over 1000 nM.

For the molecule `COC(=O)N[C@@H](C(=O)N1CCCC1C(=O)Nc1cccc(C#Cc2cccc(-c3cnc([C@@H]4CCCN4C(=O)[C@H](NC(=O)OC)c4ccccc4)[nH]3)c2)c1)c1ccccc1` (single isomer, unassigned), the EC50 amounted to 0.0906 nM.

`COC(=O)N[C@H](C(=O)N1CCC[C@H]1C(=O)Nc1ccc(C#Cc2ccc(NC(=O)[C@@H]3CCCN3C(=O)[C@@H](NC(=O)OC)C(C)C)cc2)cc1)C(C)C`: the EC50 was determined as 0.131 nM.

Turning to `CCCCOC(=O)N[C@H](C(=O)N1CCC[C@H]1C(=O)Nc1cccc(C#Cc2cccc(NC(=O)[C@@H]3CCCN3C(=O)[C@@H](NC(=O)OCCCC)C(C)C)c2)c1)C(C)C`, the EC50 worked out at 577 nM.

For `COC(=O)N[C@@H](CCSC)C(=O)N1CCC[C@H]1C(=O)Nc1cccc(C#Cc2cccc(NC(=O)[C@@H]3CCCN3C(=O)[C@H](CCSC)NC(=O)OC)c2)c1`, the EC50 was 0.136 nM.

Tested on in the next data set: not listed separately
Nature of the data set: Cytotoxicity against human Huh-5-2 cells carrying HCV subgenomic replicon assessed as decrease in intracellular ATP level measured after 72 hrs by Glo-max luminescence based assay. Format: toxicity, cell-based.
Conditions: not given
For `COC(=O)N[C@@H](C(=O)N1CCC[C@H]1C(=O)Nc1cccc(C#Cc2ccc(-c3cnc([C@@H]4CCCN4C(=O)[C@H](NC(=O)OC)c4ccccc4)[nH]3)cc2)c1)c1ccccc1`, the CC50 at 72 h was 26200 nM.

As to `CCCCOC(=O)N[C@@H](CC(C)C)C(=O)N1CCC[C@H]1C(=O)Nc1cccc(C#Cc2cccc(NC(=O)[C@@H]3CCCN3C(=O)[C@H](CC(C)C)NC(=O)OCCCC)c2)c1`, the CC50 at 72 h was over 1000 nM.

With `COC(=O)N[C@@H](C(=O)N1CCCC1C(=O)Nc1cccc(C#Cc2cccc(-c3cnc([C@@H]4CCCN4C(=O)[C@H](NC(=O)OC)c4ccccc4)[nH]3)c2)c1)c1ccccc1` (single isomer, unassigned), the CC50 at 72 h was over 1000 nM.

With `COC(=O)N[C@H](C(=O)N1CCC[C@H]1C(=O)Nc1ccc(C#Cc2ccc(NC(=O)[C@@H]3CCCN3C(=O)[C@@H](NC(=O)OC)C(C)C)cc2)cc1)C(C)C`, the CC50 at 72 h was over 1000 nM.

For the molecule `CCCCOC(=O)N[C@H](C(=O)N1CCC[C@H]1C(=O)Nc1cccc(C#Cc2cccc(NC(=O)[C@@H]3CCCN3C(=O)[C@@H](NC(=O)OCCCC)C(C)C)c2)c1)C(C)C`, the CC50 at 72 h is over 100000 nM.

For `COC(=O)N[C@@H](CCSC)C(=O)N1CCC[C@H]1C(=O)Nc1cccc(C#Cc2cccc(NC(=O)[C@@H]3CCCN3C(=O)[C@H](CCSC)NC(=O)OC)c2)c1`, the CC50 at 72 h was over 1000 nM.

The test system of another data set is Hepatitis C virus. The data set is described as follows: Antiviral activity against HCV 3a S52 in human Huh7.5 cells carrying HCV subgenomic replicons assessed as inhibition of viral replication measured after 72 hrs by Firefly luciferase reporter gene assay. It is filed as functional, organism-based, Hepacivirus hominis. The settings on record: subtype 3a S52, Huh7.5, 72 h.
As for `COC(=O)N[C@@H](C(=O)N1CCC[C@H]1C(=O)Nc1cccc(C#Cc2ccc(-c3cnc([C@@H]4CCCN4C(=O)[C@H](NC(=O)OC)c4ccccc4)[nH]3)cc2)c1)c1ccccc1`, the EC50 is 0.229 nM.

Turning to `COC(=O)N[C@H](C(=O)N1CCC[C@H]1C(=O)Nc1ccc(C#Cc2ccc(NC(=O)[C@@H]3CCCN3C(=O)[C@@H](NC(=O)OC)C(C)C)cc2)cc1)C(C)C`, the EC50 was 405 nM.

The next data set relates to Hepatitis C virus. The data set is described as follows: Antiviral activity against HCV 2a JFH1 in human Huh-7 cells carrying HCV subgenomic replicon assessed as inhibition of viral replication measured after 72 hrs by Firefly luciferase reporter gene assay. It is filed as functional, cell-based. The following applies: 2a JFH1, Huh-7, 72 h.
On to `COC(=O)N[C@@H](C(=O)N1CCC[C@H]1C(=O)Nc1cccc(C#Cc2ccc(-c3cnc([C@@H]4CCCN4C(=O)[C@H](NC(=O)OC)c4ccccc4)[nH]3)cc2)c1)c1ccccc1`, for which the EC50 was determined as 0.134 nM.

Regarding `COC(=O)N[C@H](C(=O)N1CCC[C@H]1C(=O)Nc1ccc(C#Cc2ccc(NC(=O)[C@@H]3CCCN3C(=O)[C@@H](NC(=O)OC)C(C)C)cc2)cc1)C(C)C`, the EC50 was found to be 60.1 nM.

For another data set, the system named is Hepatitis C virus. Nature of the data set: Antiviral activity against HCV 4a ED43 in human Huh7.5 cells carrying HCV subgenomic replicon assessed as inhibition of viral replication measured after 72 hrs by Firefly luciferase reporter gene assay. The settings on record: subtype 4a ED43, Huh7.5, 72 h. Format: functional, organism-based, Hepacivirus hominis.
Consider `COC(=O)N[C@@H](C(=O)N1CCC[C@H]1C(=O)Nc1cccc(C#Cc2ccc(-c3cnc([C@@H]4CCCN4C(=O)[C@H](NC(=O)OC)c4ccccc4)[nH]3)cc2)c1)c1ccccc1`, for which the EC50 is 0.0504 nM.

On to `COC(=O)N[C@H](C(=O)N1CCC[C@H]1C(=O)Nc1ccc(C#Cc2ccc(NC(=O)[C@@H]3CCCN3C(=O)[C@@H](NC(=O)OC)C(C)C)cc2)cc1)C(C)C`, for which the EC50 is 446 nM.

Tested on in the next data set: not listed separately
Nature of the data set: Metabolic stability in human S9 fraction assessed as half life at 10 mg/ml measured upto 120 mins in presence of NADP […] system by LC-MS/MS analysis. Format: ADME, subcellular.
Conditions: not given
On to `COC(=O)N[C@@H](C(=O)N1CCC[C@H]1C(=O)Nc1cccc(C#Cc2ccc(-c3cnc([C@@H]4CCCN4C(=O)[C@H](NC(=O)OC)c4ccccc4)[nH]3)cc2)c1)c1ccccc1`, for which the half-life at 10 mg/ml was over 120 min.

For the molecule `COC(=O)N[C@@H](C(=O)N1CCCC1C(=O)Nc1cccc(C#Cc2cccc(-c3cnc([C@@H]4CCCN4C(=O)[C@H](NC(=O)OC)c4ccccc4)[nH]3)c2)c1)c1ccccc1` (single isomer, unassigned), the half-life at 10 mg/ml came out at 73.6 min.

Tested on in another data set: not listed separately
The data set is described as follows: Metabolic stability in human S9 fraction assessed as clearance at 10 mg/ml measured upto 120 mins in presence of NADP […] system by LC-MS/MS analysis. It is filed as ADME, subcellular.
Conditions: not given
In the case of `COC(=O)N[C@@H](C(=O)N1CCC[C@H]1C(=O)Nc1cccc(C#Cc2ccc(-c3cnc([C@@H]4CCCN4C(=O)[C@H](NC(=O)OC)c4ccccc4)[nH]3)cc2)c1)c1ccccc1`, the microsomal CLint is under 5.8 µL/min/mg.

Take `COC(=O)N[C@@H](C(=O)N1CCCC1C(=O)Nc1cccc(C#Cc2cccc(-c3cnc([C@@H]4CCCN4C(=O)[C@H](NC(=O)OC)c4ccccc4)[nH]3)c2)c1)c1ccccc1` (single isomer, unassigned): the microsomal CLint was found to be 9.4 µL/min/mg.
